The subject of assay [1] is Arabidopsis thaliana. The assay is described as follows: MOA1 gene expression profiling (22,000 gene arrays) of sprayed Arabidopsis. As to conditions: for number of gene expression perturbations compared to the other treatments: 1 hr; for No. of Lethal Genes Altered: regulated genes at 1 hr compared with internal list of essential genes.
The next assay concerns Arabidopsis. As to conditions: nitrate addition to N-starved plants; cited from earlier work.
The subject of assay [2] is Arabidopsis thaliana. The assay is described as follows: SOA1 phenotypic analysis of herbicide-treated Arabidopsis (MIC, Tmic, leaf traits). In kind it is in vivo. As to conditions: for characteristic morphological symptoms: SOA1, in words; for tMic (Dev.): coded score of time to full range of symptoms at MIC; for leafCurling (Dev.) / leafTwisting (Dev.) / leafWidth (Dev.) / matureLeafAnthocyanins (Dev.) / matureLeafChlorosis (Dev.) / matureLeafNecrosis (Dev.) / newLeafAnthocyanins (Dev.) / newLeafChlorosis (Dev.) / newLeafNecrosis (Dev.) / pointedLeaves (Dev.): numeric value standardized to mock treated.

Assay [3] deals with Arabidopsis thaliana. The assay is described as follows: MOA1 biochemical (metabolite) profiling by LC-MS and GC-MS of sprayed Arabidopsis. As to conditions: for stress-related (commonly regulated) metabolites: MOA1, 20 min and 1 hour after spraying.
Another assay concerns Magnaporthe grisea. In kind it is cell-based.
The test system of assay [4] is Arabidopsis thaliana. Put plainly: MOA1 phenotypic profiling of sprayed Arabidopsis (symptom scores, cluster analysis). As to conditions: MOA1, in words. It counts as in vivo.
Assay [5] has as its system Saccharomyces cerevisiae wild type strain BY4743. The assay is described as follows: AF1 yeast gene expression analysis (microarray) after antifungal drug treatment. It counts as cell-based. As to conditions: 2×MIC, two hours.
Description: Saccharomyces cerevisiae wild type strain BY4743 was purchased from American Type Culture Center (ATCC, Manassas, Va.). The yeast strain was grown in YPD or SD media. […] The cultures started from fresh single colonies were grown in 1.0 ml YPD overnight at 30° C. […] The OD600 was adjusted to 1.0 with YPD media, then 2.0 ml of each was inoculated into three 250 ml flasks, each containing 50 ml of SD media. […] The cells were kept growing for another two hours, then collected by centrifugation at 4000 rpm for 5 minutes at 4° C. Pellets were washed once with ice-cold water, then were lyophilized overnight at 4° C. […] Tubes were vortexed for 30 seconds, then incubated for 10 minutes at room temperature (RT). […] Tubes were incubated for 10 minutes at RT. Samples were centrifuged for 20 minutes as before. Pellets were washed with 400 μl 70% ethanol and centrifuged for 10 minutes as before. The pellet was then dissolved in 100 μl nuclease-free water. RNA quality was determined using the Bioanalyzer 2100 and the RNA 6000 assay (Agilent Technologies, Palo Alto, Calif.) according to manufacturer's instructions. RNA concentrations were determined spectrophotometrically by measuring the absorption at 260 nm in an Ultrospec 2000 (Pharmacia Biotech, Piscataway, N.J.). […] Labeled cRNAs were evaluated using the RNA 6000 assay on the Agilent Bioanalyzer 2100. Labeled cRNA concentrations were determined spectrophotometrically by measuring the absorption at 260 nm in an Ultrospec 2000 (Pharmacia Biotech, Piscataway, N.J.). […] Each pair of samples to be hybridized were independently labeled and hybridized utilizing a fluor reversal for a total of two hybridizations per sample pair. […] Each feature was determined from an array's associated pattern file and a detection algorithm. Intensity values for each feature were determined after subtracting background derived from an average of negative control features. […] Data was evaluated after combining results from fluor reversal replicate hybridizations. […]
The test system is the same in assay [6]. Put plainly: AF1 yeast metabolite analysis by GC-MS and LC-MS after antifungal drug treatment. In kind it is cell-based. As to conditions: pLC.
The mark [7] stands for this setting: MOA1, early time points / after one hour.

Molecules are shown by their SMILES. Entries after “also recorded” stand apart in the source; their conditions may differ.

For the molecule `COC(=O)NS(=O)(=O)c1ccc(N)cc1` [Asulam], in the assay with Arabidopsis thaliana [1], the “number of gene expression perturbations compared to the other treatments” value is given as “fewest gene expression perturbations” and the “No. of Lethal Genes Altered” value is listed as 5.

`O=[N+]([O-])O` [Nitrate, nitrate]: in the assay with Arabidopsis, the “Nitrate Regulation of Glutamate synthetase” value is recorded as “↑”, the “Nitrate Regulation of Glutamine synthetase (2)” value was “↑”, the “Nitrate Regulation of MADs Box (2)” value was “↓” and the “Nitrate Regulation of MYB transcription factor” value was “↑”. Moreover, in the assay with Arabidopsis, the “Nitrate Regulation of Malate Dehydrogenase” value was “↑”, the “Nitrate Regulation of Nitrate transporter” value is on record as “↑”, the “Nitrate Regulation of Phosphate transporter” value was “↑” and the “Nitrate Regulation of Transaldolase” value is recorded as “↑”. Besides, the “Nitrate Regulation of Transketolase” value with Arabidopsis is reported as “↑”.

Turning to `CP(=O)(O)CCC(N)C(=O)O` (centres unmarked) [Glufosinate], the “No. of Lethal Genes Altered” value with Arabidopsis thaliana [1] came to 10. Further, in the assay on Arabidopsis thaliana [2], the characteristic morphological symptoms entry was “Chlorosis and leaf curling”. For the same molecule, the “tMic (Dev.)” value in the assay with Arabidopsis thaliana [2] (SOA1) is 1. The “stress-related (commonly regulated) metabolites” value (from here on “stress-related”) in the assay with Arabidopsis thaliana [3] is listed as “Only a few, if any”. In addition, the “nitrogen source utilization of M. grisea” value with Magnaporthe grisea (in the presence of the compound) was “only able to utilize glutamine and glutamate as nitrogen sources”.

In the case of `CCSC(=O)N(CC(C)C)CC(C)C` [Butylate], in the assay on Arabidopsis thaliana [4], the observed phenotype result is given as “neither showed a strong herbicidal phenotype”. In addition, in the assay on Arabidopsis thaliana [3], the “stress-related” value is “neither butylate nor chlorpropham treatment resulted in many changes in these commonly regulated metabolites”.

Turning to `CSc1nnc(C(C)(C)C)c(=O)n1N` [Metribuzin], the characteristic morphological symptoms result with Arabidopsis thaliana [2] is “rapid and widespread leaf necrosis”.

On to `c1cc[n+]2c(c1)-c1cccc[n+]1CC2` [Diquat], for which the characteristic morphological symptoms entry in the assay with Arabidopsis thaliana [2] is “rapid and widespread leaf necrosis”. In addition, the “tMic (Dev.)” value in the assay on Arabidopsis thaliana [2] (SOA1) is reported as 2.

For the molecule `C[n+]1ccc(-c2cc[n+](C)cc2)cc1` [Paraquat], the characteristic morphological symptoms entry in the assay with Arabidopsis thaliana [2] was “rapid and widespread leaf necrosis”. In the assay on Arabidopsis thaliana [2] (SOA1), the “tMic (Dev.)” value is 2, the “leafCurling (Dev.)” value was found to be 2, the “leafTwisting (Dev.)” value came to 0 and the “leafWidth (Dev.)” value is −1. Also, in the assay with Arabidopsis thaliana [2] (SOA1), the “matureLeafAnthocyanins (Dev.)” value is recorded as 0, the “matureLeafChlorosis (Dev.)” value amounted to 1, the “matureLeafNecrosis (Dev.)” value was found to be 4 and the “newLeafAnthocyanins (Dev.)” value amounted to 0. Moreover, in the assay with Arabidopsis thaliana [2] (SOA1), the “newLeafChlorosis (Dev.)” value is 1, the “newLeafNecrosis (Dev.)” value was 4 and the “pointedLeaves (Dev.)” value is reported as 1.

On to `O=C(O)c1ccccc1C(=O)Nc1cccc2ccccc12` [Naptalam], for which, in the assay on Arabidopsis thaliana [1], the “number of gene expression perturbations compared to the other treatments” value is “fewest gene expression perturbations” and the “No. of Lethal Genes Altered” value was found to be 3.

With `O=C(O)COc1ccc(Cl)cc1Cl` [2,4-D], in the assay on Arabidopsis thaliana [2] (SOA1), the “tMic (Dev.)” value is recorded as 2, the “leafCurling (Dev.)” value is reported as 1, the “leafTwisting (Dev.)” value amounted to 2 and the “leafWidth (Dev.)” value is −1. For the same molecule, in the assay on Arabidopsis thaliana [2] (SOA1), the “matureLeafAnthocyanins (Dev.)” value was determined as 1, the “matureLeafChlorosis (Dev.)” value is reported as 2, the “matureLeafNecrosis (Dev.)” value came out at 0 and the “newLeafAnthocyanins (Dev.)” value is 0. In the assay with Arabidopsis thaliana [2] (SOA1), the “newLeafChlorosis (Dev.)” value stood at 1, the “newLeafNecrosis (Dev.)” value came out at 0 and the “pointedLeaves (Dev.)” value turned out to be 0. Also, in the assay with Arabidopsis thaliana [2] (SOA1, three-week-old plants sprayed with herbicide, classes pictured in FIG. 12), the “Symtom Class” value was 5.

`CC[C@@H]([C@H](C)O)n1ncn(-c2ccc(N3CCN(c4ccc(OC[C@@H]5CO[C@@](Cn6cncn6)(c6ccc(F)cc6F)C5)cc4)CC3)cc2)c1=O` [Posaconazole]: in assay [5] (P < 0.05), the “# Transripts perturbed by treatment” value is 690.

For `CC(C)C1(C)N=C(c2ncccc2C(=O)O)NC1=O` (centres unmarked) [Imazapyr], the characteristic morphological symptoms entry in the assay with Arabidopsis thaliana [2] was “anthocyanin accumulation in the older leaves accompanied by chlorosis of the newly emerging leaves”. Besides, the “stress-related” value in the assay with Arabidopsis thaliana [3] is reported as “Only a few, if any”.

In the case of `COC(=O)c1cc(Oc2ccc(Cl)cc2Cl)ccc1[N+](=O)[O-]` [Bifenox], the characteristic morphological symptoms result with Arabidopsis thaliana [2] is listed as “Necrotic leaf flecks”.

On to `C[C@@H]1[C@H](O)[C@@H](C)/C=C/C=C/C=C/C=C/C=C/C=C/C=C/[C@H](O[C@@H]2O[C@H](C)[C@@H](O)[C@H](N)[C@@H]2O)C[C@@H]2O[C@](O)(C[C@@H](O)C[C@@H](O)[C@H](O)CC[C@@H](O)C[C@@H](O)CC(=O)O[C@H]1C)C[C@H](O)[C@H]2C(=O)O` [Amphoteracin B], for which the entries for the “# Transripts perturbed by treatment” value in assay [5] (P < 0.05) and in assay [5] (P < 0.1) were 4363 and 4652, respectively.

Take `OC(Cn1cncn1)(Cn1cncn1)c1ccc(F)cc1F` [Fiuconazole]: the “Fold Change” value in assay [6] (5hydroxyLtryptophan) and in assay [6] (adenosine) was 0 throughout.

Turning to `CN(C)C(=O)Nc1ccc(Cl)c(Cl)c1` [Diuron], the characteristic morphological symptoms entry with Arabidopsis thaliana [2] was “rapid and widespread leaf necrosis”. Besides, the “tMic (Dev.)” value in the assay with Arabidopsis thaliana [2] (SOA1) came out at 1.

For the molecule `CC(C)OC(=O)Nc1cccc(Cl)c1` [Chloropropham], the observed phenotype result in the assay with Arabidopsis thaliana [4] is on record as “neither showed a strong herbicidal phenotype”. For the same molecule, in the assay on Arabidopsis thaliana [3], the “stress-related” value is “neither butylate nor chlorpropham treatment resulted in many changes in these commonly regulated metabolites”.

As to `CCc1cnc(C2=NC(C)(C(C)C)C(=O)N2)c(C(=O)O)c1` (centres unmarked) [Imazethapyr], the characteristic morphological symptoms result in the assay on Arabidopsis thaliana [2] is on record as “anthocyanin accumulation in the older leaves accompanied by chlorosis of the newly emerging leaves”.

Regarding `CCNc1nc(Cl)nc(NC(C)C)n1` [Atrazine], the characteristic morphological symptoms result in the assay on Arabidopsis thaliana [2] was “rapid and widespread leaf necrosis”.

For the molecule `CNc1cnn(-c2cccc(C(F)(F)F)c2)c(=O)c1Cl` [Norflurazon], the “stress-related” value with Arabidopsis thaliana [3] was “Only a few, if any”.

For the molecule `CC(C)N1C(=O)c2ccccc2NS1(=O)=O` [Bentazon], the characteristic morphological symptoms entry with Arabidopsis thaliana [2] was “rapid and widespread leaf necrosis”.

For `COc1nc(C)nc(NC(=O)NS(=O)(=O)c2ccccc2Cl)n1` [Chlorsulfuron], in the assay with Arabidopsis thaliana [1], the “No. of Lethal Genes Altered” value is listed as 8. Besides, the characteristic morphological symptoms entry in the assay on Arabidopsis thaliana [2] is “anthocyanin accumulation in the older leaves accompanied by chlorosis of the newly emerging leaves”.

Turning to `O=C(O)c1cc(Oc2ccc(C(F)(F)F)cc2Cl)ccc1[N+](=O)[O-]` [Acifluorfen], the characteristic morphological symptoms entry in the assay with Arabidopsis thaliana [2] is listed as “Necrotic leaf flecks”.

On to `Nc1nc[nH]n1` [Amitrole], for which, in the assay on Arabidopsis thaliana [4], the observed phenotype entry is “chlorosis and not true bleaching”. In the assay with Arabidopsis thaliana [2], the characteristic morphological symptoms result is “leaf bleaching and leaf enlargement”.

As to `CS(=O)(=O)c1cc(C(F)(F)F)ccc1C(=O)c1cnoc1C1CC1` [Isoxaflutole], in the assay with Arabidopsis thaliana [1], the “No. of Lethal Genes Altered” value was 15. Moreover, in the assay on Arabidopsis thaliana [3] (MOA1, early time points), the “Alpha-tocopherol levels relative to the control” value is listed as “not significantly changed”. For the same molecule, in the assay on Arabidopsis thaliana [3] (setting [7]), the “phenylalanine level relative to the control” value was “up-regulated; also recorded: began to accumulate” and the “tyrosine level relative to the control” value is reported as “up-regulated; also recorded: began to accumulate”.

`O=C(O)CNCP(=O)(O)O` [Glyphosate]: the characteristic morphological symptoms entry with Arabidopsis thaliana [2] is “anthocyanin accumulation in the older leaves accompanied by chlorosis of the newly emerging leaves”. The “tMic (Dev.)” value in the assay with Arabidopsis thaliana [2] (SOA1) is on record as 2. Also, the “tyrosine level relative to the control” value in the assay on Arabidopsis thaliana [3] (setting [7]) is on record as “decreased”. Also, the “growth of M. grisea with ammonium or glutamine provided” value in the assay with Magnaporthe grisea is “Little growth defect”. Moreover, the “growth inhibition and remediation” value in the assay with Magnaporthe grisea (1.0 mg/ml) is on record as “remediated by inclusion of aromatic amino acids”.

The values above are taken from patent US20040024543A1, “Methods and systems for analyzing complex biological systems” (priority 2001, published 2004).
